What all share (assay): biochemical
Test [1] concerns the target Adenosine receptor A2a (Homo sapiens, UniProt P29274, H250N).
The target of test [2] is Adenosine receptor A2a (Homo sapiens, UniProt P29274, V84L).
Test [3] deals with Adenosine receptor A2a (Homo sapiens, UniProt P29274).
Adenosine receptor A2a (Homo sapiens, UniProt P29274), sequence (P29274 whole entry): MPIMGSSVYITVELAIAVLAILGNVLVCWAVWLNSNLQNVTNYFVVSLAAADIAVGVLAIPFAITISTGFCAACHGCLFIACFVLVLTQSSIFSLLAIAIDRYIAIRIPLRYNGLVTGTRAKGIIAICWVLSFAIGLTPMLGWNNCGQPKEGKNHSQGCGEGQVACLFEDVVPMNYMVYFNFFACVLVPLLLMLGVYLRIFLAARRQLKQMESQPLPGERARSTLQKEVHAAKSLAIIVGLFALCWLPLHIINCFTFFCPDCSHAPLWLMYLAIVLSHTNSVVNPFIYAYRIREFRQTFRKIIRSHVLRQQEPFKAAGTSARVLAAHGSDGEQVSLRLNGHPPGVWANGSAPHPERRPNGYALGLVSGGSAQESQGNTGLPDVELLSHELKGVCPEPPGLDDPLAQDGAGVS
Description: Binding affinity for HA-tagged wild type human Adenosine A2A receptor (WT) using [3H]CGS-21680 as radioligand expressed in COS-7 cells

Adenosine receptor A2a (Homo sapiens, UniProt P29274, V84L), sequence (P29274 whole entry V84L): as the sequence (P29274 whole entry) above, with V84L counted along it
Adenosine receptor A2a (Homo sapiens, UniProt P29274, H250N), sequence (P29274 whole entry H250N): as the sequence (P29274 whole entry) above, with H250N counted along it

`COc1cc(OC)cc(C(CNc2ncnc3c2ncn3[C@@H]2O[C@H](CO)[C@@H](O)[C@H]2O)c2ccccc2C)c1` (stereo not given in full): the inhibition constant (Ki) was found to be 0.0359 µM on Adenosine receptor A2a [1], 0.0189 µM at Adenosine receptor A2a [2] and 0.0381 µM at Adenosine receptor A2a [3].

With `CCOC(=O)c1sc(SCc2ccccc2)c2c1CCCC2=O`, the inhibitory constant (Ki) turned out to be 54.3 µM on Adenosine receptor A2a [1], 72.6 µM at Adenosine receptor A2a [2] and 106 µM on Adenosine receptor A2a [3].

For `N=C(N)NC(=O)c1nc(Cl)c(N)nc1N` [AMILORIDE], the inhibition constant (Ki) on Adenosine receptor A2a [1] was found to be 3.28 µM; on Adenosine receptor A2a [2], 11.6 µM; on Adenosine receptor A2a [3], 12 µM.

For `O=c1c(O)c(-c2ccccc2)oc2cc(O)cc(O)c12` [GALANGIN], the Ki on Adenosine receptor A2a [1] was determined as 33 µM; at Adenosine receptor A2a [2] it was 18.1 µM; at Adenosine receptor A2a [3] it was 16.7 µM.

As for `COC(=O)C1=C(C)NC(C)=C(C(=O)OC)C1c1ccccc1[N+](=O)[O-]` [NIFEDIPINE], the inhibition constant (Ki) at Adenosine receptor A2a [1] worked out at 22.2 µM; on Adenosine receptor A2a [2], 22.2 µM; at Adenosine receptor A2a [3], 244 µM.

One may read the Ki as a dissociation constant, usually derived from enzyme kinetics or from competition with a known ligand.

Source of the values: ChEMBL document CHEMBL1130114 (J Med Chem, 1997).
